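Cells were grown in 96-well plates and exposed to each compound for 48 hours at five concentrations; endpoints were interpolated linearly between bracketing concentrations, or set to the highest concentration if not reached. At the GI50, growth is halved.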 Activity calls are given as the source filed them. Rule as the data show it: active = GI50 up to about 1.1 µM and inactive = higher.
Tests used:
Test in all cases: DTP human tumour cell line panel, 48 h
HCC 2998 = system: HCC 2998
HOP-62 = system: HOP-62
HT-29 = system: HT-29
IGROV-1 = system: IGROV-1
K562 = system: K562
KM12 = system: KM12
MCF7 = system: MCF7
NCI-H226 = system: NCI-H226
NCI-H460 = system: NCI-H460
NCI-H522 = system: NCI-H522
NCI/ADR-RES = system: NCI/ADR-RES
OVCAR-5 = system: OVCAR-5
RPMI-8226 = system: RPMI-8226
SF-268 = system: SF-268
SK-MEL-2 = system: SK-MEL-2
SK-OV-3 = system: SK-OV-3
SN12C = system: SN12C
SW-620 = system: SW-620
LOX IMVI = system: LOX IMVI
SNB-19 = system: SNB-19

Structure (SMILES)	GI50 (HCC 2998)	GI50 (HOP-62)	GI50 (HT-29)	GI50 (IGROV-1)	GI50 (K562)	GI50 (KM12)	GI50 (MCF7)	GI50 (NCI-H226)	GI50 (NCI-H460)	GI50 (NCI-H522)	GI50 (NCI/ADR-RES)	GI50 (OVCAR-5)	GI50 (RPMI-8226)	GI50 (SF-268)	GI50 (SK-MEL-2)	GI50 (SK-OV-3)	GI50 (SN12C)	GI50 (SW-620)	GI50 (LOX IMVI)	GI50 (SNB-19)
O=C1CC(=O)NC(NN2C(=O)/C(=C/c3ccc(Cl)cc3)N=C2c2ccccc2)=N1	11.7 µM (inactive)	15.5 µM (inactive)	16.4 µM (inactive)	13.2 µM (inactive)	9.62 µM (inactive)	13 µM (inactive)	21.2 µM (inactive)	16.9 µM (inactive)	9.53 µM (inactive)	10.1 µM (inactive)	14.9 µM (inactive)	15.1 µM (inactive)	11.3 µM (inactive)	14.1 µM (inactive)	15.5 µM (inactive)	23 µM (inactive)	16.8 µM (inactive)	17.4 µM (inactive)		
CN(C)C1(C(=O)O)CC1	> 100 µM (inactive)	> 100 µM (inactive)	> 100 µM (inactive)	> 100 µM (inactive)	> 100 µM (inactive)		> 100 µM (inactive)	> 100 µM (inactive)	> 100 µM (inactive)	> 100 µM (inactive)	> 100 µM (inactive)	> 100 µM (inactive)	> 100 µM (inactive)	> 100 µM (inactive)			> 100 µM (inactive)	> 100 µM (inactive)	> 100 µM (inactive)	> 100 µM (inactive)
O=c1n(Cc2ccccc2)c(=O)n2c(=O)n(Cc3ccccc3)c(=O)n12	> 100 µM (inactive)		54.6 µM (inactive)		> 100 µM (inactive)	> 100 µM (inactive)	> 100 µM (inactive)	> 100 µM (inactive)	> 100 µM (inactive)	> 100 µM (inactive)	> 100 µM (inactive)		> 100 µM (inactive)	> 100 µM (inactive)		> 100 µM (inactive)	> 100 µM (inactive)	> 100 µM (inactive)	> 100 µM (inactive)	> 100 µM (inactive)
C=C1c2nc3ccccc3n2C=C(c2ccc(Cl)cc2)N1c1ccccc1	13.3 µM (inactive)			7.73 µM (inactive)	40.6 µM (inactive)	12.3 µM (inactive)	13 µM (inactive)	0.031 µM (active)	12.4 µM (inactive)	4 µM (inactive)	12.2 µM (inactive)	26.5 µM (inactive)	28 µM (inactive)		22.5 µM (inactive)	16.9 µM (inactive)	39.9 µM (inactive)	25.3 µM (inactive)	33.7 µM (inactive)	6.56 µM (inactive)
Cc1[nH]c2ncn3[nH]c(=S)nc3c2c1Cc1ccccc1	92.5 µM (inactive)	> 100 µM (inactive)	> 100 µM (inactive)	48.1 µM (inactive)		> 100 µM (inactive)	52.6 µM (inactive)	> 100 µM (inactive)	> 100 µM (inactive)	72.4 µM (inactive)	> 100 µM (inactive)	> 100 µM (inactive)		> 100 µM (inactive)	> 100 µM (inactive)	> 100 µM (inactive)	> 100 µM (inactive)	> 100 µM (inactive)		> 100 µM (inactive)
Cc1ccc(/C=C2\NC(=S)NC2=O)cc1	> 100 µM (inactive)	> 100 µM (inactive)	> 100 µM (inactive)	> 100 µM (inactive)	> 100 µM (inactive)	> 100 µM (inactive)	> 100 µM (inactive)	> 100 µM (inactive)		> 100 µM (inactive)	> 100 µM (inactive)	> 100 µM (inactive)	> 100 µM (inactive)	> 100 µM (inactive)	> 100 µM (inactive)	> 100 µM (inactive)	> 100 µM (inactive)	> 100 µM (inactive)	40.3 µM (inactive)	> 100 µM (inactive)
CCN(CC)C1CCC(C2c3cc4c(cc3OC(N3CCOCC3)C2C)OCO4)CC1 (stereo unspecified)	10 µM (inactive)	18.3 µM (inactive)	5.75 µM (inactive)	> 27.9 µM (inactive)	8.77 µM (inactive)	16.8 µM (inactive)	22.6 µM (inactive)		16.3 µM (inactive)	12.4 µM (inactive)	27 µM (inactive)	36.4 µM (inactive)	15.5 µM (inactive)	> 100 µM (inactive)	5.62 µM (inactive)		> 29.2 µM (inactive)	16.1 µM (inactive)	11.4 µM (inactive)	71.4 µM (inactive)
CCOC1NC(=O)Oc2ccccc21 (stereo unspecified)	> 100 µM (inactive)	> 100 µM (inactive)	> 100 µM (inactive)	> 100 µM (inactive)	> 100 µM (inactive)	> 100 µM (inactive)	> 100 µM (inactive)	> 100 µM (inactive)	> 100 µM (inactive)	> 100 µM (inactive)	> 100 µM (inactive)	> 100 µM (inactive)		> 100 µM (inactive)	> 100 µM (inactive)	> 100 µM (inactive)	> 100 µM (inactive)	> 100 µM (inactive)	> 100 µM (inactive)	> 100 µM (inactive)
